Measured values published in patent EP4159870A1, “SYSTEM FOR THE DETECTION OF INHIBITORS IN MILK” (Analytik in Milch Produktions- und Vertriebs-GmbH, priority 2021, dated 2023).
Values after ≈ are worked out from the molar mass of the structure shown.

Key:
[1] = milk samples, after heating for 20 min at 120 °C; cited from earlier work
A. pallidus MHI 3391 [2] = assay: FQ-BRT test system, detection of inhibitors in spiked milk samples; assay type: cell-based; details: for detection at the detection level: incubation extended by two hours; for Detection at concentration: plates incubated for additional four hours relative to discoloration time of the negative control; for test result in the FQ-BRT: spiked milk samples at concentrations at the level of the respective MRL
Method: A. pallidus MHI 3391 was used as the indicator bacteria, endospores were used with a spore count of 1.56 × 10^7 cfu/ml growth medium, the growth medium used was based on BRT basis medium comprising a brilliant black concentration of 100 mg/l, 100 µg/l MOX and 8000 µg/l 8-hydroxyquinoline, adjusted to a pH of 8.5. In the following, this test system will be referred to as FQ-BRT. The incubation of the FQ-BRT was carried out in a water bath at 61 ± 1 °C.
The detection limits determined during the photometric and visual evaluation of test plates are shown in Figure 8 based on positive and negative control (CCβ A and CCβ B) derived from quality curves generated using the logistic regression model.
Discoloration of the negative control on test plates of the FQ-BRT using an UHT milk negative control was observed after an incubation of 302 ± 35 min.

A. pallidus MHI 3391 [3] = assay: BRT microbial test system with additives in the growth medium, A. pallidus indicator strain; assay type: cell-based; details: for Concentrations detected in spiked milk samples: growth medium with 100 µg/l MOX; for incubated longer than corresponding control plates: additive in growth medium: 100 µg/l CIP, 100 µg/l MOX
Method: (§1) The medium was prepared with one additive each. The evaluation of an increase in sensitivity and incubation time until complete discoloration of the negative control was performed by comparison with corresponding control medium, spore suspensions from the same batches and an equivalent number of spores.
(§2) Microbial test systems were prepared according to methods L 01.01-5 (January 2012) and L 01.00-11 (December 2002) ASU. 6.85 g BRT basis medium comprising about 1.5 g/l meat extract, about 3.0 g/l yeast extract, about 4.0 g/l casein peptone, about 6.0 g/l meat peptone, about 1.0 g/l D(+)-glucose, about 10 ml/l trimethoprim solution, and about 10 to […] dissolved in 250 ml distilled water and autoclaved.
(§3) The medium was tempered to 65 °C. 6.25 ml of sterile-filtered brilliant black solution (4 mg/ml, in dist. aqua) and medium additives and the spore suspension was added. The volume of spore suspension to be used was calculated on the basis of the desired spore number [cfu/ml] and the determined spore number of the spore suspension. The spore suspension was adjusted to a volume corresponding to 0.4 to 6 % v/v of the growth medium by dilution in Ringer's solution or by centrifugation (6,000 × g, RT, 10 min).
(§4) 100 µl growth medium per well was aliquoted into 96-well microtiter plates, the test system plates were solidified under the sterile bench for at least 30 min, the test system plates were sealed with adhesive foil and stored at 4 °C with the bottom surface facing upwards.

[4] = tested on: G. stearothermophilus C953 (DSM 1550); assay: BRT microbial test system with additives in the growth medium, G. stearothermophilus indicator strain; assay type: cell-based; details: for longer incubation time until complete discoloration of the negative control: additive in growth medium: 200 µg/l CIP, 150 µg/l MOX, versus control plates
Method: as §1, §2, §3, §4

A. pallidus MHI 3391 [5] = assay: microbe, parasite or virus in culture
[6] = tested on: G. stearothermophilus C953 (DSM 1550); assay: microbe, parasite or virus in culture; details: Geobacillus stearothermophilus, DSM1550
A. pallidus MHI 3391 [7] = assay: BRT test system with Ca-DPA-activated spore suspensions; assay type: cell-based; details: Ca-DPA-activated spores versus control plates
Method: (§5) 120 mM DPA stock solution was prepared in Tris-base and diluted in a 20-80 mM CaCl2 solution to obtain a Ca-DPA working solution before use. A spore suspension was adjusted to a specific spore count of 1.56 × 10^7 cfu/ml and a Ca-DPA concentration of 40 mM with Ca-DPA working solution and Ringer's solution. The spore suspension was incubated for 3 h in a thermal shaker at 55 °C and 350 rpm.

[8] = tested on: G. stearothermophilus C953 (DSM 1550); assay: as above; assay type: cell-based; details: Ca-DPA-activated spores versus control plates
Method: as §5

[9] = tested on: B. thermoamylovorans MHI 3373; assay: as above; assay type: cell-based; details: Ca-DPA-activated spores versus control plates without Ca-DPA activation
Method: as §5

A. pallidus MHI 3390 = assay: as above; assay type: cell-based; details: Ca-DPA-activated spores versus control plates
Method: as §5

[10] = tested on: A. thermoaerophilus MHI 3397; assay: as above; assay type: cell-based; details: Ca-DPA-activated spores versus control plates
Method: as §5

[11] = 8-hydroxyquinoline at 250, 500, 1000, 2000 and 4000 µg/l in basic growth medium

Molecule: CCN1CCN(c2cc3c(cc2F)c(=O)c(C(=O)O)cn3C2CC2)CC1 [ENR, enrofloxacin]
- degradation [1]: 5%
- detection at the detection level (A. pallidus MHI 3391 [2]): 100 µg/kg
- Detection at concentration (A. pallidus MHI 3391 [2]): 100 µg/kg
- Concentrations detected in spiked milk samples (A. pallidus MHI 3391 [3]): 100 µg/kg

Molecule: CCOc1ccc2ccccc2c1C(=O)N[C@@H]1C(=O)N2[C@@H]1SC(C)(C)[C@@H]2C(=O)O [nafcillin]
- test result in the FQ-BRT (A. pallidus MHI 3391 [2]): intermediate test results

Molecule: CN1C[C@@H]2C[C@H]1CN2c1cc2c(cc1F)c(=O)c(C(=O)O)cn2C1CC1 [DAN, danofloxacin]
- Concentrations detected in spiked milk samples (A. pallidus MHI 3391 [3]): 120 µg/kg

Molecule: Cc1onc(-c2c(Cl)cccc2Cl)c1C(=O)N[C@@H]1C(=O)N2[C@@H]1SC(C)(C)[C@@H]2C(=O)O [dicloxacillin]
- test result in the FQ-BRT (A. pallidus MHI 3391 [2]): intermediate test results

Molecule: CN1CCN(c2c(F)cc3c(=O)c(C(=O)O)cn4c3c2OCN4C)CC1 [MAR, marbofloxacin]
- detection sensitivity (A. pallidus MHI 3391 [2]; incubation extended by three hours): 100 µg/kg
- detection at the detection level (A. pallidus MHI 3391 [2]): 75 µg/kg
- Concentrations detected in spiked milk samples (A. pallidus MHI 3391 [3]): 75 µg/kg

Molecule: COc1c(N2C[C@@H]3CCCN[C@@H]3C2)c(F)cc2c(=O)c(C(=O)O)cn(C3CC3)c12 [MOX, moxifloxacin]
- longer incubation time until complete discoloration of the negative control [4]: 18 ± 0 min
- incubated longer than corresponding control plates (A. pallidus MHI 3391 [3]): 62 ± 31 min

Molecule: O=C(O)c1cn(C2CC2)c2cc(N3CCNCC3)c(F)cc2c1=O [CIP, ciprofloxacin]
- detection at the detection level (A. pallidus MHI 3391 [2]): 100 µg/kg
- Detection at concentration (A. pallidus MHI 3391 [2]): 50 µg/kg
- effect of addition to growth medium on detection sensitivity ([4]; additive in growth medium: 50 µg/l CIP, 75 µg/l MOX, 100 µg/l LEV): not associated with an increased sensitivity
- longer incubation time until complete discoloration of the negative control [4]: 32 ± 10 min
- concentration detected in spiked milk samples ([4]; growth medium comprising 100 or 200 µg/l CIP, 100, 125 or 150 µg/l MOX, or 200 µg/l LEV): 200 µg/kg
- incubated longer than corresponding control plates (A. pallidus MHI 3391 [3]): 17 ± 7 min
- Concentrations detected in spiked milk samples (A. pallidus MHI 3391 [3]): 50 µg/kg
- concentration detected (A. pallidus MHI 3391 [3]; growth medium with addition of 100 µg/l CIP): 100 µg/kg

Molecule: Oc1cccc2cccnc12 [8-hydroxyquinoline]
- MIC (A. pallidus MHI 3391 [5]): 8 µg/mL (≈ 55.1 µM)
- improvement in detection sensitivity [4, 11]: no improvement in detection sensitivity
- reduction in incubation time ([4]; addition of 8-hydroxyquinoline): not observed
- Incubation time reduced by (A. pallidus MHI 3391 [3]; 8000 µg/l 8-hydroxyquinoline added to growth medium comprising 100 µg/l MOX): 70 ± 16 min
- improvement in detection sensitivity (A. pallidus MHI 3391 [3]; [11]): no improvement in detection sensitivity
- Incubation time reduced by (A. pallidus MHI 3391 [3]; addition of 2000 µg/l 8-hydroxyquinoline to basic growth medium): 66 ± 0 min
- Incubation time reduced by (A. pallidus MHI 3391 [3]; addition of 4000 µg/l 8-hydroxyquinoline to basic growth medium): 94 ± 7 min
- decrease in incubation time (A. pallidus MHI 3391 [3]; combination of 8000 µg/l 8-hydroxyquinoline and 100 µg/l CIP): 17 ± 4 min
- MIC [6]: 4 µg/mL (≈ 27.6 µM)

Molecule: calcium dipicolinic acid [Ca-DPA]
- increase in incubation time, mean difference (A. pallidus MHI 3391 [7]): 164 ± 52 min
- increase in incubation time, mean difference [8]: 139 ± 42 min
- shorter incubation time [9]: 23 ± 2 min
- increase in incubation time, mean difference (A. pallidus MHI 3390): 139 ± 29 min
- effect on incubation duration [10]: No effect on incubation duration

Molecule: gentamicin
- test result in the FQ-BRT (A. pallidus MHI 3391 [2]): positive test result

Molecule: neomycin
- test result in the FQ-BRT (A. pallidus MHI 3391 [2]): positive test result

Molecule: CCN1CCN(C(=O)N[C@@H](C(=O)N[C@@H]2C(=O)N3C(C(=O)O)=C(CSc4nnnn4C)CS[C@H]23)c2ccc(O)cc2)C(=O)C1=O [cefoperazone]
- test result in the FQ-BRT (A. pallidus MHI 3391 [2]): intermediate test results

Molecule: CC[C@H]1OC(=O)C[C@@H](O)[C@H](C)[C@@H](O[C@@H]2O[C@H](C)[C@@H](O[C@H]3C[C@@](C)(O)[C@@H](O)[C@H](C)O3)[C@H](N(C)C)[C@H]2O)[C@@H](CC=O)C[C@@H](C)C(=O)/C=C/C(C)=C/[C@@H]1CO[C@@H]1O[C@H](C)[C@@H](O)[C@@H](OC)[C@H]1OC [tylosin]
- test result in the FQ-BRT (A. pallidus MHI 3391 [2]): positive test result

Molecule: Cc1onc(-c2ccccc2)c1C(=O)N[C@@H]1C(=O)N2[C@@H]1SC(C)(C)[C@@H]2C(=O)O [oxacillin]
- test result in the FQ-BRT (A. pallidus MHI 3391 [2]): intermediate test results

Molecule: CO/N=C(\C(=O)N[C@@H]1C(=O)N2C(C(=O)[O-])=C(C[n+]3cccc4c3CCCC4)CS[C@H]12)c1csc(N)n1 [cefquinome]
- test result in the FQ-BRT (A. pallidus MHI 3391 [2]): intermediate test results
